# Source: paper PMC12366332 (Applied and Environmental Microbiology, 2025)
# Like-named read-outs stand apart in the source and are kept apart here. Ends that are not written are not given here.
# Columns and labels:
# [1] = test system: E. coli 0111:B4 LPS; assay type: biochemical, Escherichia coli
# [2] = test system: X. fastidiosa subsp. fastidiosa IVIA 5387.2
# [3] = test system: tobacco leaves; conditions: 150 µM; after 48 h
Compound,LPS neutralization Ratio (treatment/NTC) [1],Bactericidal activity Reduction in viability (Log N0/N) ([2]; 50 µM),Bactericidal activity Level ([2]; 50 µM),Phytotoxicity: diameter of the lesion [3] [mm],Bactericidal activity Reduction in viability (Log N0/N) [2],EC50 ([2]; 3 h) [µM]
KkLFKKILKYL-NH2 [BP145],"0,76","1,08 Log N0/N",,,,
KKLFKKILKYL-NH2 [BP100],"0,34","1,92 Log N0/N",Moderate (key: Very High: very high bactericidal activity (>2.5 log); High: high bactericidal activity (between 2.0 and 2.5 log); Moderate: a moderate activity (between 1.5 and 2.0 log); Low: low active (<1.5 log)),,,
KKLFKKILKVL-NH2 [BP015],"1,10","1,13 Log N0/N",,,,
KKLFKkILKYL-NH2 [BP146],"0,73","1,25 Log N0/N",,,,
KKlFKKILKYL-NH2 [BP144],"1,07","0,68 Log N0/N",,,,
"CC[C@H](C)[C@H](NC(=O)CN)C(=O)NCC(=O)N[C@@H](C)C(=O)N[C@H](C(=O)N[C@@H](CC(C)C)C(=O)N[C@@H](CCCCN)C(=O)N[C@H](C(=O)N[C@@H](CC(C)C)C(=O)N[C@H](C(=O)N[C@H](C(=O)NCC(=O)N[C@@H](CC(C)C)C(=O)N1CCC[C@H]1C(=O)N[C@@H](C)C(=O)N[C@@H](CC(C)C)C(=O)N[C@H](C(=O)N[C@@H](CO)C(=O)N[C@@H](Cc1c[nH]c2ccccc12)C(=O)N[C@H](C(=O)N[C@@H](CCCCN)C(=O)N[C@@H](CCCNC(=N)N)C(=O)N[C@@H](CCCCN)C(=O)N[C@@H](CCCNC(=N)N)C(=O)N[C@@H](CCC(N)=O)C(=O)N[C@@H](CCC(N)=O)C(N)=O)[C@@H](C)CC)[C@@H](C)CC)[C@@H](C)O)[C@@H](C)O)C(C)C)C(C)C [Melittin, reference compound]",,,,10,,
CF-KKLfKK(COC3H7)ILKYL-NH2 [BP473-CF],,,,,"0,91 Log N0/N",
"CCCCCCCCCCCC(=O)NCCCC[C@H](NC(=O)[C@H](CCCCN)NC(C)=O)C(=O)N[C@@H](CC(C)C)C(=O)N[C@@H](Cc1ccccc1)C(=O)N[C@@H](CCCCN)C(=O)N[C@@H](CCCCN)C(=O)N[C@H](C(=O)N[C@@H](CC(C)C)C(=O)N[C@@H](CCCCN)C(=O)N[C@@H](Cc1ccc(O)cc1)C(=O)N[C@@H](CC(C)C)C(N)=O)[C@@H](C)CC [BP393, Ac-KK(COC11H23)LFKKILKYL-NH2]",,,High (key: Very High: very high bactericidal activity (>2.5 log); High: high bactericidal activity (between 2.0 and 2.5 log); Moderate: a moderate activity (between 1.5 and 2.0 log); Low: low active (<1.5 log)),6,,20.1
KKLFKKILKFL-NH2 [BP076],"0,36","0,91 Log N0/N",,,,
Ac-LKLFKKILKVL-NH2 [BP022],"0,61","1,87 Log N0/N",Moderate (key: Very High: very high bactericidal activity (>2.5 log); High: high bactericidal activity (between 2.0 and 2.5 log); Moderate: a moderate activity (between 1.5 and 2.0 log); Low: low active (<1.5 log)),,,
KKLFKKILKKL-NH2 [BP016],"1,13","0,00 Log N0/N",,,,
c(LLKKKWKKLQ) (cyclic) [BPC098W],"0,83","0,78 Log N0/N",Low (key: Very High: very high bactericidal activity (>2.5 log); High: high bactericidal activity (between 2.0 and 2.5 log); Moderate: a moderate activity (between 1.5 and 2.0 log); Low: low active (<1.5 log)),,,
KKLfKKILKYL-NH2 [BP143],"0,70","0,89 Log N0/N",,,,
FKLFKKILKVL-NH2 [BP013],"1,13","1,03 Log N0/N",,,,
KKVVFWVKFk-NH2 [BP442],"0,76","1,09 Log N0/N",Low (key: Very High: very high bactericidal activity (>2.5 log); High: high bactericidal activity (between 2.0 and 2.5 log); Moderate: a moderate activity (between 1.5 and 2.0 log); Low: low active (<1.5 log)),,,
